Positions of bridges follow the written chain, without caps; N, C: chain ends. Residues, ends and D or L forms follow the SMILES beside them.

Assay [1] has as its system Pseudomonas aeruginosa (ATCC 27883). As to conditions: ATCC 27883.
Assay [2] relates to Methicillin-resistant Staphylococcus aureus MRSA (ATCC BAA-1556). As to conditions: ATCC BAA-1556.
Assay [3] concerns Escherichia coli (ATCC 25922). Type of assay: cell-based. As to the method: (§1) All bacteria pathogens tested clinically reported multi-drug resistant strains. The antibacterial activity was tested against Gram-negative strains namely; Pseudomonas aeruginosa (PSA), Klebsiella pneumoniae (KPC), Escherichia coli (E. coli) and Gram-positive Methicillin-resistant Staphylococcus aureus (MRSA). The minimum inhibitory concentration (MIC) is the lowest concentration of the antibiotic that inhibits microbial growths. MIC is determined by visual inspection or use of spectrophotometer plate reader to determine media turbidity. On the other hand, the minimum bactericidal concentration (MBC) is the lowest concentration that kills […] of bacterial growth. Cytotoxicity of peptides in the hepatic cell line, human skin fibroblast cell line, heart/myocardium cells, and human lung fibroblast cells is shown in FIGS. 36-46). […] (IFX-315)-Au-NP with antibiotics are shown in FIGS. 49-58 when the gold nanoparticles are formed by the peptide followed by addition of the antibiotic. […] (IFX-301) with antibiotics (1:1 ratio) first and then used in the synthesis of Au-NP in antibacterial activities is shown in FIGS. 59-68.
(§2) The MBC is identified by determining the lowest concentration of antibacterial agent that reduces the viability (concentration of peptides necessary to achieve a bactericidal effect) of the initial bacterial inoculum by ≥99.9%.

For assay [4], the system named is Methicillin-resistant Staphylococcus aureus MRSA (ATCC BAA-1556). Type of assay: cell-based. As to the method:
as §1, §2

The subject of assay [5] is Escherichia coli (ATCC 25922). As to conditions: ATCC 25922.
For assay [6], the system named is Klebsiella pneumoniae (ATCC BAA-1705). As to conditions: ATCC BAA-1705.
For assay [7], the system named is Pseudomonas aeruginosa (ATCC 27883). Type of assay: cell-based. As to conditions: ATCC 27883. The protocol:
as §1, §2

`N=C(N)NCCC[C@H](NC(=O)[C@H](CCCNC(=N)N)NC(=O)[C@H](CCCNC(=N)N)NC(=O)[C@H](CCCNC(=N)N)NC(=O)[C@H](CS)NC(=O)[C@H](Cc1c[nH]c2ccccc12)NC(=O)[C@H](Cc1c[nH]c2ccccc12)NC(=O)[C@H](Cc1c[nH]c2ccccc12)NC(=O)[C@@H](N)Cc1c[nH]c2ccccc12)C(=O)N[C@@H](CS)C(=O)O` [IFX-332] (H-WWWWCRRRRC-OH): in assay [1], the “PSA (ATCC 27883 MIC)” value turned out to be 256 µg/mL. Also, the “MRSA (ATCC BAA-1556) MIC” value in assay [2] turned out to be 64 µg/mL. In addition, the “E. coli (ATCC 25922) MBC” value in assay [3] turned out to be 256 µg/mL. In assay [4], the “MRSA (ATCC BAA-1556) MBC” value turned out to be 128 µg/mL. Besides, the “E. coli (ATCC 25922) MIC” value in assay [5] amounted to 128 µg/mL. Moreover, in assay [6], the “KPC (ATCC BAA-1705) MIC” value stood at 512 µg/mL.
Turning to `N=C(N)NCCC[C@@H]1NC(=O)[C@H](CCCNC(=N)N)NC(=O)[C@H](CCCNC(=N)N)NC(=O)[C@H](CCCNC(=N)N)NC(=O)[C@@H](NC(=O)[C@H](Cc2c[nH]c3ccccc23)NC(=O)[C@H](Cc2c[nH]c3ccccc23)NC(=O)[C@H](Cc2c[nH]c3ccccc23)NC(=O)[C@@H](N)Cc2c[nH]c3ccccc23)CSSC[C@@H](C(=O)O)NC1=O` [IFX-334] (H-WWWWCRRRRC-OH; disulfide 5-10), the “PSA (ATCC 27883 MIC)” value in assay [1] is 256 µg/mL. Further, in assay [2], the “MRSA (ATCC BAA-1556) MIC” value was 32 µg/mL. In addition, in assay [3], the “E. coli (ATCC 25922) MBC” value was 64 µg/mL. The “PSA (ATCC 27883) MBC” value in assay [7] turned out to be 256 µg/mL. The “MRSA (ATCC BAA-1556) MBC” value in assay [4] was determined as 64 µg/mL. In assay [5], the “E. coli (ATCC 25922) MIC” value was found to be 32 µg/mL. In addition, the “KPC (ATCC BAA-1705) MIC” value in assay [6] was 256 µg/mL.

These data come from patent publication US20220289794A1, “SYNTHETIC ANTIMICROBIAL PEPTIDES” (priority 2019, published 2022).
